biological target: SARS2 coronavirus 3CL protease (Severe acute respiratory syndrome coronavirus 2, UniProt P0DTD1); experiment: biochemical; settings: 5 nM enzyme, 30 min pre-incubation with compound, 15 μM peptide substrate, 4 h at room temperature; read-out: FRET Potency (nM); IC50 values in the SARS2 3CLPro FRET assay

Question: `O=C(NC1CC1)C(=O)[C@H](C[C@@H]1CCNC1=O)NC(=O)c1cc(Cl)ccc1NC(=O)C(F)(F)F` [Example 51, 5-chloro-N-[(1S)-3-(cyclopropylamino)-2,3-dioxo-1-[[(3S)-2-oxopyrrolidin-3-yl]methyl]propyl]-2-[(2,2,2-trifluoroacetyl)amino] benzamide] was tested. Which IC50 did it give?
Answer: The IC50 was 8.6 nM.

Question: Which IC50 does the source give for `C[C@@H]1C[C@@H](C[C@H](NC(=O)c2cc(Cl)cnc2NC(=O)CCC(F)(F)F)C(=O)C(=O)NC2CC2)C(=O)N1` [Example 52, 5-chloro-N-[(1S)-3-(cyclopropylamino)-1-[[(3S,5R)-5-methyl-2-oxo-pyrrolidin-3-yl]methyl]-2,3-dioxo-propyl]-2-(4,4,4-trifluorobutanoylamino) pyridine-3-carboxamide] here?
Answer: The IC50 was 8.4 nM.

Question: Which IC50 does the source give for `C[C@@H]1C[C@@H](C[C@H](NC(=O)c2cc(Cl)c(F)cc2NC(=O)CCC(F)(F)F)C(=O)C(=O)NC2CC2)C(=O)N1` [Example 53, 5-chloro-N-[(1S)-3-(cyclopropylamino)-1-[[(3S,5R)-5-methyl-2-oxo-pyrrolidin-3-yl]methyl]-2,3-dioxo-propyl]-4-fluoro-2-(4,4,4-trifluorobutanoylamino) benzamide] here?
Answer: Its IC50 is 8.3 nM.

Question: How did the IC50 turn out when `C[C@@H]1C[C@@H](C[C@H](NC(=O)c2cc(Cl)ccc2NC(=O)C23CC(F)(C2)C3)C(=O)C(=O)NC2CC2)C(=O)N1` [Example 54, N-[4-chloro-2-[[(1S)-3-(cyclopropylamino)-1-[[(3S,5R)-5-methyl-2-oxo-pyrrolidin-3-yl]methyl]-2,3-dioxo-propyl]carbamoyl]phenyl]-3-fluoro-bicyclo[1.1.1]pentane-1-carboxamide] was run?
Answer: Its IC50 is 8.2 nM.

Question: How did the IC50 turn out when `CNC(=O)C(=O)[C@H](C[C@@H]1C[C@@H](C)NC1=O)NC(=O)c1cc(Cl)ccc1NC(=O)c1ccc(C(F)(F)F)cn1` [Example 55, N-[4-chloro-2-[[(1S)-3-(methylamino)-1-[[(3S,5R)-5-methyl-2-oxo-pyrrolidin-3-yl]methyl]-2,3-dioxo-propyl]carbamoyl]phenyl]-5-(trifluoromethyl)pyridine-2-carboxamide] was run?
Answer: Its IC50 is 8.2 nM.

Question: How did the IC50 turn out when `O=C(CCC(F)(F)F)Nc1cc(F)c(Cl)cc1C(=O)N[C@@H](C[C@@H]1CCNC1=O)C(=O)C(=O)NC1CC1` [Example 56, 5-chloro-N-[(1S)-3-(cyclopropylamino)-2,3-dioxo-1-[[(3S)-2-oxopyrrolidin-3-yl]methyl]propyl]-4-fluoro-2-(4,4,4-trifluorobutanoylamino) benzamide] was run?
Answer: The IC50 was 8.1 nM.

Question: For `CNC(=O)C(=O)[C@H](C[C@@H]1C[C@@H](C)NC1=O)NC(=O)c1cc(Cl)cnc1NC(=O)c1ccc(F)cc1` [Example 57, 5-chloro-2-[(4-fluorobenzoyl)amino]-N-[(1S)-3-(methylamino)-1-[[(3S,5R)-5-methyl-2-oxo-pyrrolidin-3-yl]methyl]-2,3-dioxo-propyl]pyridine-3-carboxamide], which IC50 is on record?
Answer: Its IC50 is 8.1 nM.

Question: For `C[C@@H]1C[C@@H](C[C@H](NC(=O)c2cc(Cl)cnc2NC(=O)c2cccc(F)c2)C(=O)C(=O)NC2CC2)C(=O)N1` [Example 58, 5-chloro-N-[(1S)-3-(cyclopropylamino)-1-[[(3S,5R)-5-methyl-2-oxo-pyrrolidin-3-yl]methyl]-2,3-dioxo-propyl]-2-[(3-fluorobenzoyl)amino] pyridine-3-carboxamide], which IC50 is on record?
Answer: The IC50 was 8.1 nM.

Question: With `C[C@@H]1C[C@@H](C[C@H](NC(=O)c2cc(Cl)ccc2NC(=O)C2CC(F)(F)C2)C(=O)C(=O)NC2CC2)C(=O)N1` [Example 59, 5-chloro-N-[(1S)-3-(cyclopropylamino)-1-[[(3S,5R)-5-methyl-2-oxo-pyrrolidin-3-yl]methyl]-2,3-dioxo-propyl]-2-[(3,3-difluorocyclobutanecarbonyl)amino]benzamide] as the compound, how does the IC50 read?
Answer: Its IC50 is 8 nM.

Question: Which IC50 does the source give for `C[C@@H]1C[C@@H](C[C@H](NC(=O)c2cc(C#N)ccc2NC(=O)c2cccc(C(F)(F)F)c2)C(=O)C(=O)NC2CC2)C(=O)N1` [Example 61, 5-cyano-N-[(1S)-3-(cyclopropylamino)-1-[[(3S,5R)-5-methyl-2-oxo-pyrrolidin-3-yl]methyl]-2,3-dioxo-propyl]-2-[[3-(trifluoromethyl)benzoyl]amino]benzamide] here?
Answer: The IC50 was 7.7 nM.

Question: With `C[C@@H]1C[C@@H](C[C@H](NC(=O)c2cc(Cl)ccc2NC(=O)C2(CC(F)(F)F)CC2)C(=O)C(=O)NC2CC2)C(=O)N1` [Example 62] as the compound, how does the IC50 read?
Answer: Its IC50 is 7.6 nM.

Question: For `O=C(NC1CC1)C(=O)[C@H](C[C@@H]1CCNC1=O)NC(=O)c1cc(Cl)ccc1NC(=O)C1CC(F)(F)C1` [Example 63, 5-chloro-N-[(1S)-3-(cyclopropylamino)-2,3-dioxo-1-[[(3S)-2-oxopyrrolidin-3-yl]methyl]propyl]-2-[(3,3-difluorocyclobutanecarbonyl)amino]benzamide], which IC50 is on record?
Answer: Its IC50 is 7.3 nM.

Question: `C[C@@H]1C[C@@H](C[C@H](NC(=O)c2cc(C(F)(F)F)ccc2NC(=O)c2cccc(C(F)(F)F)c2)C(=O)C(=O)NC2CC2)C(=O)N1` [Example 64, N-[(1S)-3-(cyclopropylamino)-1-[[(3S,5R)-5-methyl-2-oxo-pyrrolidin-3-yl]methyl]-2,3-dioxo-propyl]-5-(trifluoromethyl)-2-[[3-(trifluoromethyl)benzoyl]amino]benzamide] was tested. Which IC50 did it give?
Answer: The IC50 was 7.3 nM.

Question: How did the IC50 turn out when `C[C@@H]1C[C@@H](C[C@H](NC(=O)c2cc(Cl)ccc2NC(=O)c2cccc(C(F)(F)F)c2)C(=O)C(=O)NC2CC2)C(=O)N1` [Example 66, 5-chloro-N-[(1S)-3-(cyclopropylamino)-1-[[(3S,5R)-5-methyl-2-oxo-pyrrolidin-3-yl]methyl]-2,3-dioxo-propyl]-2-[[3-(trifluoromethyl)benzoyl]amino]benzamide] was run?
Answer: Its IC50 is 7 nM.

Question: `C[C@@H]1C[C@@H](C[C@H](NC(=O)c2cc(F)cnc2NC(=O)c2cccc(C(F)(F)F)c2)C(=O)C(=O)NC2CC2)C(=O)N1` [Example 67, N-[(1S)-3-(cyclopropylamino)-1-[[(3S,5R)-5-methyl-2-oxo-pyrrolidin-3-yl]methyl]-2,3-dioxo-propyl]-5-fluoro-2-[[3-(trifluoromethyl)benzoyl]amino]pyridine-3-carboxamide] was tested. Which IC50 did it give?
Answer: The IC50 was 7 nM.

Question: Which IC50 does the source give for `O=C(CCC(F)(F)F)Nc1ccc(Cl)cc1C(=O)N[C@@H](C[C@@H]1C[C@@H](C(F)(F)F)NC1=O)C(=O)C(=O)NC1CC1` [Example 68, 5-chloro-N-[(1S)-3-(cyclopropylamino)-2,3-dioxo-1-[[(3R,5S)-2-oxo-5-(trifluoromethyl)pyrrolidin-3-yl]methyl]propyl]-2-(4,4,4-trifluorobutanoylamino) benzamide] here?
Answer: Its IC50 is 7 nM.

Question: `C[C@@H]1C[C@@H](C[C@H](NC(=O)c2cc(Cl)ccc2NC(=O)C23CC(C(F)(F)F)(C2)C3)C(=O)C(=O)NC2CC2)C(=O)N1` [Example 69, N-[4-chloro-2-[[(1S)-3-(cyclopropylamino)-1-[[(3S,5R)-5-methyl-2-oxo-pyrrolidin-3-yl]methyl]-2,3-dioxo-propyl]carbamoyl]phenyl]-3-(trifluoromethyl)bicyclo[1.1.1] pentane-1-carboxamide] was tested. Which IC50 did it give?
Answer: The IC50 was 6.9 nM.

Question: With `CNC(=O)C(=O)[C@H](C[C@@H]1C[C@@H](C)NC1=O)NC(=O)c1cc(C(F)F)ccc1NC(=O)c1cccc(C(F)(F)F)c1` [Example 70, 5-(difluoromethyl)-N-[(1S)-3-(methylamino)-1-[[(3S,5R)-5-methyl-2-oxo-pyrrolidin-3-yl]methyl]-2,3-dioxo-propyl]-2-[[3-(trifluoromethyl)benzoyl]amino]benzamide] as the compound, how does the IC50 read?
Answer: The IC50 was 6.9 nM.

Question: For `O=C(NC1CC1)C(=O)[C@H](C[C@@H]1CCNC1=O)NC(=O)c1cc(Cl)ccc1NC(=O)c1cncc(C(F)(F)F)c1` [Example 71, N-[4-chloro-2-[[(1S)-3-(cyclopropylamino)-2,3-dioxo-1-[[(3S)-2-oxopyrrolidin-3-yl]methyl]propyl]carbamoyl]phenyl]-5-(trifluoromethyl)pyridine-3-carboxamide], which IC50 is on record?
Answer: Its IC50 is 6.6 nM.

Question: For `CNC(=O)C(=O)[C@H](C[C@@H]1C[C@@H](C)NC1=O)NC(=O)c1cc(Cl)ccc1NC(=O)c1cc(C(F)(F)F)ccn1` [Example 72, N-[4-chloro-2-[[(1S)-3-(methylamino)-1-[[(3S,5R)-5-methyl-2-oxo-pyrrolidin-3-yl]methyl]-2,3-dioxo-propyl]carbamoyl]phenyl]-4-(trifluoromethyl)pyridine-2-carboxamide], which IC50 is on record?
Answer: The IC50 was 6.3 nM.

Question: How did the IC50 turn out when `C[C@@H]1C[C@@H](C[C@H](NC(=O)c2cc(Cl)ccc2NC(=O)c2cccc(F)c2)C(=O)C(=O)NC2CC2)C(=O)N1` [Example 73, 5-chloro-N-[(1S)-3-(cyclopropylamino)-1-[[(3S,5R)-5-methyl-2-oxo-pyrrolidin-3-yl]methyl]-2,3-dioxo-propyl]-2-[(3-fluorobenzoyl)amino] benzamide] was run?
Answer: Its IC50 is 6.2 nM.

Question: With `CNC(=O)C(=O)[C@H](C[C@@H]1C[C@@H](C)NC1=O)NC(=O)c1cc(Cl)ccc1NC(=O)c1ccnc(C(F)(F)F)c1` [Example 74] as the compound, how does the IC50 read?
Answer: Its IC50 is 6.2 nM.

Question: With `O=C(NC1CC1)C(=O)[C@H](C[C@@H]1CCNC1=O)NC(=O)c1cc(Cl)ccc1NC(=O)c1ccnc(C(F)(F)F)c1` [Example 75, N-[4-chloro-2-[[(1S)-3-(cyclopropylamino)-2,3-dioxo-1-[[(3S)-2-oxopyrrolidin-3-yl]methyl]propyl]carbamoyl]phenyl]-2-(trifluoromethyl)pyridine-4-carboxamide] as the compound, how does the IC50 read?
Answer: Its IC50 is 6 nM.

Question: Which IC50 does the source give for `CNC(=O)C(=O)[C@H](C[C@@H]1C[C@@H](C)NC1=O)NC(=O)c1cc(Cl)ccc1NC(=O)c1ccc(C(F)(F)F)nc1` [Example 76, N-[4-chloro-2-[[(1S)-3-(methylamino)-1-[[(3S,5R)-5-methyl-2-oxo-pyrrolidin-3-yl]methyl]-2,3-dioxo-propyl]carbamoyl]phenyl]-6-(trifluoromethyl)pyridine-3-carboxamide] here?
Answer: The IC50 was 5.3 nM.

Question: With `C[C@@H]1C[C@@H](C[C@H](NC(=O)c2cc(F)ccc2NC(=O)c2ccnc(C(F)(F)F)c2)C(=O)C(=O)NC2CC2)C(=O)N1` [Example 77, N-[2-[[(1S)-3-(cyclopropylamino)-1-[[(3S,5R)-5-methyl-2-oxo-pyrrolidin-3-yl]methyl]-2,3-dioxo-propyl]carbamoyl]-4-fluoro-phenyl]-2-(trifluoromethyl)pyridine-4-carboxamide] as the compound, how does the IC50 read?
Answer: The IC50 was 5.3 nM.

Source: patent US20240228535A1 (priority 2022, published 2024)
